Where two headings read alike, the source gives them in different places.
Legend:
Format in all cases: physicochemical
[1] = Turbidity, derived count rate of scattered light; conditions: for Log Count Rate: log of derived count rate; for Count Rate / Zeta Count Rate / kcps: derived count rate of scattered light; for Count Rate / kcps: derived count rate of scattered light at 633 nm, 173°, from zeta-potential measurement, 0.1 mg/mL in 1 mM KCl after 1 d at 1 mg/mL in PBS, turbidity / microscopic aggregation, mean of triplicate
Outline: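 One-day room-temperature aggregation at 1 mg/mL in PBS (pH 7.4) preceded measurement; samples then went into 1 mM KCl. Triplicates per sample, two independent experiments averaged.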

[2] = Conversion rate (CR) assay with fluorescamine
Outline: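 Peptide monomer conversion into nanostructures was quantified by separating free monomer via 3 kDa ultrafiltration, then labelling amines in filtrate and whole sample with fluorescamine in DMSO. CR was derived as 100 − 100 × (filtrate/original fluorescence), triplicate means with SD.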

[3] = Zeta-potential measurement; conditions: for Zeta-pot. / mV: zeta potential of peptide, Fig S15 source data
Outline: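 PBS pH 7.4, 1 mg/mL peptide (DMSO stock), 1 d RT aggregation; diluted in 1 mM KCl pre-read; mobility → zeta (Smoluchowski); n = 3, 2 expts averaged.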

[4] = Fig S8 panels A, C, asymmetric log errors
[5] = category 1 or 0 derived from the count rate, key not given
[6] = category 1 or 0 from count rate, key not given
[7] = mean, std deviation in next column
[8] = category derived from the zeta potential
[9] = mean, std deviation in separate column
[10] = Log10 of derived count rate of scattered light (turbidity)
[11] = turbidity, Log10 of derived count rate of scattered light, Figure 3A source data
[12] = zeta-potential of peptide, source data of Figure 2C
[13] = zeta-potential of the peptide assemblies, mean, Figure 3A source data
[14] = log10 of derived count rate of scattered light (turbidity)
[15] = zeta potential of peptide assemblies

Row | Substance | Zeta Count Rate Category [1, 6] | Zeta Count Rate / kcps [1, 7] [kcps] | Conversion Rate / % ([2]; fluorescamine assay) [%] | Zeta category ( +1 = if > 4 mV;-1 = if < -4 mV; 0 = -4mV to 4 mV) [3] | Zeta category ( +1 = if > 4 mV;-1 = if < -4 mV; 0 = -4mV to 4 mV) ([3]; category from zeta potential) | Zeta Pot. / mV ([3]; mean, Std Zeta in next column) [mV] | Zeta-pot. / mV [3] [mV] | Zeta Count Rate / kcps [1, 9] [kcps] | Conversion Rate / % [2] [%] | Zeta Pot. / mV ([3]; mean, Std in separate column) [mV] | Zeta Count Rate Category ([1]; category 1/0, no key printed) | further results
1 | KIKIQIC [TM112 / CN11] | 1 | 980.7 | 51.55 | 1 (+1 = if > 4 mV) | 1 (+1 = if > 4 mV) | 19.93 | 19.93 | – | – | – | – | Log Count Rate [1, 4]: 2.992; Log Count Rate ([1]; Fig S8 panels B, D): 2.992; Count Rate ([1]; Fig S8 panels B, D, turbidity): 980.67; Zeta Count Rate Category ([1]; category 1 / 0, no key given): 1; Zeta Count Rate Category [1, 5]: 1; Zeta Count Rate / kcps [1]: 980.7 kcps; Zeta Pot. / mV [3]: 19.93 mV; Zeta category ( +1 = if > 4 mV;-1 = if < -4 mV; 0 = -4mV to 4 mV) [3, 8]: 1 (+1 = if > 4 mV)
2 | CKFKQFFNMWQ [CK13] | 1 | 8210 | 98.72 | 1 (+1 = if > 4 mV) | 1 (+1 = if > 4 mV) | 8.563 | 8.563 | 8210 | 98.72 | 8.563 | – | Zeta Count Rate Category ([1]; category 1 / 0, no key given): 1; Zeta Count Rate / kcps [1]: 8210 kcps; Zeta Pot. / mV [3]: 8.563 mV
3 | CRFRVPF [CN8] | – | 73.97 | 97.05 | 1 (+1 = if > 4 mV) | – | 4.413 | 4.413 | – | – | – | 0 | –
4 | QCKFKFQFNM [CK8] | 1 | 3669.6 | 98.94 | 1 (+1 = if > 4 mV) | 1 (+1 = if > 4 mV) | 15.7 | 15.7 | 3669.6 | 98.94 | 15.7 | 1 | –
5 | QCKFKQFFNMWQ [CK10] | 1 | 18911.36667 | 98.72 | 1 (+1 = if > 4 mV) | 1 (+1 = if > 4 mV) | 9.587 | 9.587 | 18911.36667 | 98.72 | 9.587 | – | Log Count Rate ([1]; Fig S8 panels B, D): 4.277; Count Rate ([1]; Fig S8 panels B, D, turbidity): 18911.4; Zeta Count Rate Category ([1]; category 1 / 0, no key given): 1; Zeta Count Rate / kcps [1]: 18911.36667 kcps; Zeta Pot. / mV [3]: 9.587 mV
6 | QCKAKAQANMWQ [CK22] | 1 | 427.5 | 89.28 | -1 (-1 = if < -4 mV) | -1 (-1 = if < -4 mV) | -8.05 | -8.05 | 427.5 | 89.28 | -8.05 | 1 | –
7 | QCKIKIQINM [CK2] | 1 | 9524 | 89.7 | 1 (+1 = if > 4 mV) | 1 (+1 = if > 4 mV) | 11.37 | 11.37 | 9524 | 89.7 | 11.37 | 1 | –
8 | KAKAQA [JJA2 / TM153] | 0 | 20.93 | 0.3138 | -1 (-1 = if < -4 mV) | -1 (-1 = if < -4 mV) | -14.08 | -14.08 | 20.93 | 0.3138 | -14.08 | 0 | –
9 | CHLHLQL [CN9] | – | 1155 | 96.58 | -1 (-1 = if < -4 mV) | – | -12.27 | -12.27 | – | – | – | 1 | Log Count Rate [1, 4]: 3.062; Log Count Rate ([1]; Fig S8 panels B, D): 3.062; Count Rate ([1]; Fig S8 panels B, D, turbidity): 1154.63
10 | CEFEFQFNMWQ [TM140] | – | 186.3 | 98.63 | -1 (-1 = if < -4 mV) | – | -34.23 | -34.23 | – | – | – | 1 | Zeta Count Rate Category [1, 5]: 1; Zeta category ( +1 = if > 4 mV;-1 = if < -4 mV; 0 = -4mV to 4 mV) [3, 8]: -1 (-1 = if < -4 mV)
11 | QCKFKFQFNMWQ [CK7] | 1 | 1208 | 98.91 | 1 (+1 = if > 4 mV) | 1 (+1 = if > 4 mV) | 21.07 | 21.07 | 1208 | 98.91 | 21.07 | 1 | –
12 | QCKAKAQA [CK24] | 1 | 1319.1 | – | 0 (0 = -4mV to 4 mV) | 0 (0 = -4mV to 4 mV) | 0.674 | 0.674 | 1319.1 | – | 0.674 | 1 | Log Count Rate ([1]; Fig S8 panels B, D): 3.12; Count Rate ([1]; Fig S8 panels B, D, turbidity): 1319.1
13 | RGDCKIKIQINM [TM45] | 1 | 1623 | – | 1 (+1 = if > 4 mV) | 1 (+1 = if > 4 mV) | 11.3 | 11.3 | 1623 | – | 11.3 | – | –
14 | RGDKIKIQIC [MG7/CN1] | 1 | 7509 | – | 1 (+1 = if > 4 mV) | 1 (+1 = if > 4 mV) | 16.5 | 16.5 | 7509 | – | 16.5 | – | –
15 | KIKIQINMW [JGB1 /TM85] | 1 | 239.6 | – | 1 (+1 = if > 4 mV) | 1 (+1 = if > 4 mV) | 19.7 | 19.7 | 239.6 | – | 19.7 | – | –
16 | KFKFQFNMW | – | – | – | – | – | – | – | – | – | – | – | Log10 Count Rate [1, 10]: 2.785; Count Rate / kcps [1]: 610 kcps; Log10 Count Rate [1, 11]: 2.785; Log10 Count Rate ([1]; turbidity, log10 of derived count rate of scattered light): 2.785; Zeta-Pot. [3]: 22.6; Zeta-Potential / mV [3, 12]: 16.22 mV; Zeta-Potential / mV [3, 13]: 22.6 mV
17 | KLKQLL | – | – | – | – | – | – | – | – | – | – | – | Log10 Count Rate [1, 10]: 2.505; Count Rate / kcps [1]: 320 kcps; Log10 Count Rate [1, 14]: 2.505; Log10 Count Rate [1, 11]: 2.505; Zeta-Pot. [3, 15]: -8.46; Zeta-Potential / mV [3, 12]: -5.682 mV; Zeta-Potential / mV [3, 13]: -8.46 mV
18 | RGDKIKIQI | – | – | – | – | – | – | – | – | – | – | – | Log10 Count Rate [1, 10]: 2.474; Count Rate / kcps [1]: 298 kcps; Log10 Count Rate [1, 14]: 2.474; Log10 Count Rate [1, 11]: 2.474; Zeta-Pot. [3, 15]: -0.899; Zeta-Potential / mV [3, 12]: 2.829 mV; Zeta-Potential / mV [3, 13]: -0.9 mV
19 | QCKIKIQI [CK3] | 1 | 12426.83333 | – | 1 (+1 = if > 4 mV) | 1 (+1 = if > 4 mV) | 9.52 | 9.52 | 12426.83333 | – | 9.52 | 1 | –
20 | CKFKFQFNMW [KB14] | – | 4107 | – | 1 (+1 = if > 4 mV) | – | 18.4 | 18.4 | 4107 | – | 18.4 | 1 | –
21 | KAKAQANM [TM152] | 0 | 42.5 | – | 0 (0 = -4mV to 4 mV) | 0 (0 = -4mV to 4 mV) | -2.62 | -2.62 | 42.5 | – | -2.62 | 0 | –

Reference: PMC10447463, “Data-mining unveils structure–property–activity correlation of viral infectivity enhancing self-assembling peptides” (Nature Communications, 2023)
